Source: patent publication US10221163B2 (priority 2015, dated 2019)
Read-outs that look alike come from different tables or passages of the source.

How the values were obtained:
[1] = test system: Pseudomonas aeruginosa efflux− (MB9799), IMP-1; assay type: cell-based; details: efflux− MB9799; imipenem at 2 μg/mL; in the presence of a class A, C, D serine β-lactamase inhibitor closely related to relebactam
Outline: (§1)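 P. aeruginosa PAO1-derived IMP-1 strains, efflux+ MB9798 and efflux− MB9799, tested by standard microbroth MIC with imipenem and/or ceftazidime fixed, usually at CLSI breakpoint, plus fixed class A/C β-lactamase inhibitor against AmpC. Inhibitor titrated; concentration restoring susceptibility recorded; MB9798/MB9799 fold difference indicates efflux.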

[2] = test system: Escherichia coli expressing NDM-1 (CLB30005, CLB30016); assay type: cell-based; details: NDM-1 strain, with imipenem 1 μg/ml, 95% inhibition of growth
Outline: (§2)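 Clinical strains grown overnight on blood agar at 35°C, colonies suspended in saline, diluted 1:100 into 1.1×CAMHB. Test compound titrated with imipenem at 1 μg/ml; incubated 22–24 h at 35°C, growth read by absorbance.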

[3] = test system: Serratia marcescens expressing IMP-1 (CL5741); assay type: cell-based; details: IMP-1 strain CL5741, with imipenem 1 μg/ml, 95% inhibition of growth
Outline: as §2

[4] = test system: Klebsiella pneumoniae expressing VIM-1 (IHMA599644); assay type: cell-based; details: VIM-1 strain IHMA599644, with imipenem 1 μg/ml, 95% inhibition of growth
Outline: as §2

[5] = test system: Pseudomonas aeruginosa MB9798 vs MB9799; details: fold difference between efflux+ (MB9798) and efflux− (MB9799) strains; imipenem at 2 μg/mL
Outline: as §1

VIM-1 = VIM-1 (Pseudomonas aeruginosa (strain ATCC 15692 / DSM 22644 / CIP 104116 / JCM 14847 / LMG 12228 / 1C / PRS 101 / PAO1), UniProt A0A0F7KYQ8); experiment: biochemical; details: CCF2-FA substrate, 30 pM enzyme, 2 hours at 25° C.
Outline: (§3)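 Semi-log dose-response curves, fitted with a 4-parameter model, gave IC50s. The underlying signal was CCF2-FA fluorescence following 2 hours at 25° C with enzyme, substrate and inhibitor combined.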

[6] = test system: Pseudomonas aeruginosa efflux+ (MB9798), IMP-1; assay type: cell-based; design: Concentration of metallo-β-lactamase inhibitor which restores susceptibility of efflux + (MB9798) strain to imipenem: unit not given here; details: efflux+ MB9798; imipenem at 2 μg/mL; in the presence of a class A, C, D serine β-lactamase inhibitor closely related to relebactam
Outline: as §1

NDM-1 = NDM-1 (Klebsiella pneumoniae, UniProt C7C422); experiment: biochemical; assay type: biochemical; details: fluorescence assay, CCF2-FA substrate, 1 pM enzyme, 2 hours at 25° C.; read-out: NDM-1 IC50
Outline: as §3

IMP-1 = IMP-1 (Serratia marcescens, UniProt P52699); experiment: biochemical; assay type: biochemical; details: fluorescence assay, CCF2-FA substrate, 2 pM enzyme, 2 hours at 25° C.; read-out: IMP-1 IC50
Outline: as §3

[7] = fluorescence assay, read-out: VIM-1 IC50

Chain of NDM-1 (C7C422 whole entry, looked up, species assumed): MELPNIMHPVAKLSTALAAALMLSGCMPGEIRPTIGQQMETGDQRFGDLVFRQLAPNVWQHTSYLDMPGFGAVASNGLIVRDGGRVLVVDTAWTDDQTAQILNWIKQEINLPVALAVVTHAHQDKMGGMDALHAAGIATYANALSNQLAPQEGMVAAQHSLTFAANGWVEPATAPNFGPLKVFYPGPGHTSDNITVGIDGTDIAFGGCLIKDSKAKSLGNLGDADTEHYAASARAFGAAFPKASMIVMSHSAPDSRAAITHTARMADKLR
Chain of IMP-1 (P52699 whole entry, looked up, species assumed): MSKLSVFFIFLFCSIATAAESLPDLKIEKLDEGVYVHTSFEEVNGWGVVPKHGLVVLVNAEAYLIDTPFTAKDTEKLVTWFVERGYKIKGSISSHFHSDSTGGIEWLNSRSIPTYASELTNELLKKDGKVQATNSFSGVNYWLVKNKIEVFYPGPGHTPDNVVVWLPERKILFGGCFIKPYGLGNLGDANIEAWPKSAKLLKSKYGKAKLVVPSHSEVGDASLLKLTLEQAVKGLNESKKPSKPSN

## NCCNS(=O)(=O)c1ccc(-c2ccnc(N)c2)c(-c2nn[nH]n2)c1S(N)(=O)=O [Example 400]
[1]
  Concentration of metallo-β-lactamase inhibitor which restores susceptibility of efflux − (MB9799) strain to imipenem: 0.7813
[2]
  Escherichia coli MITC95: 0.1953 µM
[3]
  Serratia marcescens MITC95: 0.3906 µM
[4]
  Klebsiella pneumoniae MITC95: 1.563 µM
[5]
  Efflux ratio: 2.00
VIM-1; [7]
  IC50: 0.244 nM
[6]
  Concentration of metallo-β-lactamase inhibitor which restores susceptibility of efflux + (MB9798) strain to imipenem: 1.563
NDM-1
  IC50: 0.598 nM
IMP-1
  IC50: 1.42 nM

## NCCNS(=O)(=O)c1ccc(-c2ccc3nccn3c2)c(-c2nn[nH]n2)c1S(N)(=O)=O [Example 401]
[1]
  Concentration of metallo-β-lactamase inhibitor which restores susceptibility of efflux − (MB9799) strain to imipenem: 0.7813
[2]
  Escherichia coli MITC95: 0.7813 µM
[3]
  Serratia marcescens MITC95: 0.3906 µM
[4]
  Klebsiella pneumoniae MITC95: 1.563 µM
[5]
  Efflux ratio: 2.00
VIM-1; [7]
  IC50: 0.0897 nM
[6]
  Concentration of metallo-β-lactamase inhibitor which restores susceptibility of efflux + (MB9798) strain to imipenem: 1.563
NDM-1
  IC50: 0.197 nM
IMP-1
  IC50: 0.483 nM

## NCCCNS(=O)(=O)c1ccc(-c2cc(F)cc3[nH]c(N)nc23)c(-c2nn[nH]n2)c1S(N)(=O)=O [Example 402]
[1]
  Concentration of metallo-β-lactamase inhibitor which restores susceptibility of efflux − (MB9799) strain to imipenem: 0.7813
[2]
  Escherichia coli MITC95: 0.3906 µM
[3]
  Serratia marcescens MITC95: 0.7813 µM
[4]
  Klebsiella pneumoniae MITC95: 1.563 µM
[5]
  Efflux ratio: 1.00
VIM-1; [7]
  IC50: 0.159 nM
[6]
  Concentration of metallo-β-lactamase inhibitor which restores susceptibility of efflux + (MB9798) strain to imipenem: 0.7813
NDM-1
  IC50: 0.0524 nM
IMP-1
  IC50: 0.318 nM

## NCC(CN)NS(=O)(=O)c1ccc(-c2cccc3[nH]nnc23)c(-c2nn[nH]n2)c1S(N)(=O)=O [Example 403]
[1]
  Concentration of metallo-β-lactamase inhibitor which restores susceptibility of efflux − (MB9799) strain to imipenem: 1.563
[2]
  Escherichia coli MITC95: 1.563 µM
[3]
  Serratia marcescens MITC95: 1.563 µM
[4]
  Klebsiella pneumoniae MITC95: 3.125 µM
[5]
  Efflux ratio: 1.00
VIM-1; VIM-1 IC50, fluorescence assay
  IC50: 0.175 nM
[6]
  Concentration of metallo-β-lactamase inhibitor which restores susceptibility of efflux + (MB9798) strain to imipenem: 1.563
NDM-1
  IC50: 0.0633 nM
IMP-1
  IC50: 0.531 nM

## NCC(CN)NS(=O)(=O)c1ccc(-c2ccc(N)nc2)c(-c2nn[nH]n2)c1S(N)(=O)=O [Example 404]
[1]
  Concentration of metallo-β-lactamase inhibitor which restores susceptibility of efflux − (MB9799) strain to imipenem: 0.9766
[2]
  Escherichia coli MITC95: 0.293 µM
[3]
  Serratia marcescens MITC95: 0.5859 µM
[4]
  Klebsiella pneumoniae MITC95: 1.172 µM
[5]
  Efflux ratio: 1.20
VIM-1; [7]
  IC50: 0.297 nM
[6]
  Concentration of metallo-β-lactamase inhibitor which restores susceptibility of efflux + (MB9798) strain to imipenem: 1.172
NDM-1
  IC50: 0.232 nM
IMP-1
  IC50: 0.354 nM

## NCC(CN)NS(=O)(=O)c1ccc(-c2ccnc(N)c2)c(-c2nn[nH]n2)c1S(N)(=O)=O [Example 405]
[1]
  Concentration of metallo-β-lactamase inhibitor which restores susceptibility of efflux − (MB9799) strain to imipenem: 12.5
[2]
  Escherichia coli MITC95: 3.125 µM
[3]
  Serratia marcescens MITC95: 6.25 µM
[4]
  Klebsiella pneumoniae MITC95: 25 µM
[5]
  Efflux ratio: 2.00
VIM-1; [7]
  IC50: 5.94 nM
[6]
  Concentration of metallo-β-lactamase inhibitor which restores susceptibility of efflux + (MB9798) strain to imipenem: 25
NDM-1
  IC50: 7.69 nM
IMP-1
  IC50: 17.9 nM

## NCC(CN)NS(=O)(=O)c1ccc(-c2ccc3nccn3c2)c(-c2nn[nH]n2)c1S(N)(=O)=O [Example 406]
[1]
  Concentration of metallo-β-lactamase inhibitor which restores susceptibility of efflux − (MB9799) strain to imipenem: 1.563
[2]
  Escherichia coli MITC95: 0.3906 µM
[3]
  Serratia marcescens MITC95: 0.7813 µM
[4]
  Klebsiella pneumoniae MITC95: 3.125 µM
[5]
  Efflux ratio: 1.00
VIM-1; [7]
  IC50: 0.172 nM
[6]
  Concentration of metallo-β-lactamase inhibitor which restores susceptibility of efflux + (MB9798) strain to imipenem: 1.563
NDM-1
  IC50: 0.164 nM
IMP-1
  IC50: 0.592 nM

## NC[C@H](CO)NS(=O)(=O)c1ccc(-c2cccc3[nH]nnc23)c(-c2nn[nH]n2)c1S(N)(=O)=O [Example 407]
[1]
  Concentration of metallo-β-lactamase inhibitor which restores susceptibility of efflux − (MB9799) strain to imipenem: 1.563
[2]
  Escherichia coli MITC95: 0.7813 µM
[3]
  Serratia marcescens MITC95: 1.563 µM
[4]
  Klebsiella pneumoniae MITC95: 3.125 µM
[5]
  Efflux ratio: 2.00
VIM-1; VIM-1 IC50, fluorescence assay
  IC50: 0.335 nM
[6]
  Concentration of metallo-β-lactamase inhibitor which restores susceptibility of efflux + (MB9798) strain to imipenem: 3.125
NDM-1
  IC50: 0.14 nM
IMP-1
  IC50: 1.35 nM

## NC[C@H](CO)NS(=O)(=O)c1ccc(-c2ccc(N)nc2)c(-c2nn[nH]n2)c1S(N)(=O)=O [Example 408]
[1]
  Concentration of metallo-β-lactamase inhibitor which restores susceptibility of efflux − (MB9799) strain to imipenem: 1.563
[2]
  Escherichia coli MITC95: 0.09766 µM
[3]
  Serratia marcescens MITC95: 0.7813 µM
[4]
  Klebsiella pneumoniae MITC95: 3.125 µM
[5]
  Efflux ratio: 1.00
VIM-1; [7]
  IC50: 0.394 nM
[6]
  Concentration of metallo-β-lactamase inhibitor which restores susceptibility of efflux + (MB9798) strain to imipenem: 1.563
NDM-1
  IC50: 0.421 nM
IMP-1
  IC50: 0.684 nM

## NC[C@@H](CO)NS(=O)(=O)c1ccc(-c2ccc(N)nc2)c(-c2nn[nH]n2)c1S(N)(=O)=O [Example 409]
[1]
  Concentration of metallo-β-lactamase inhibitor which restores susceptibility of efflux − (MB9799) strain to imipenem: 1.563
[2]
  Escherichia coli MITC95: 0.1953 µM
[3]
  Serratia marcescens MITC95: 1.563 µM
[4]
  Klebsiella pneumoniae MITC95: 3.125 µM
[5]
  Efflux ratio: 1.00
VIM-1; [7]
  IC50: 0.184 nM
[6]
  Concentration of metallo-β-lactamase inhibitor which restores susceptibility of efflux + (MB9798) strain to imipenem: 1.563
NDM-1
  IC50: 0.112 nM
IMP-1
  IC50: 0.17 nM

## Nc1ccc(-c2ccc(S(=O)(=O)N[C@H]3CNC[C@H]3O)c(S(N)(=O)=O)c2-c2nn[nH]n2)cn1 [Example 410]
[1]
  Concentration of metallo-β-lactamase inhibitor which restores susceptibility of efflux − (MB9799) strain to imipenem: 0.7813
[2]
  Escherichia coli MITC95: 0.3906 µM
[3]
  Serratia marcescens MITC95: 0.7813 µM
[4]
  Klebsiella pneumoniae MITC95: 1.563 µM
[5]
  Efflux ratio: 1.00
VIM-1; [7]
  IC50: 0.374 nM
[6]
  Concentration of metallo-β-lactamase inhibitor which restores susceptibility of efflux + (MB9798) strain to imipenem: 0.7813
NDM-1
  IC50: 0.322 nM
IMP-1
  IC50: 0.681 nM

## Nc1ccc(-c2ccc(S(=O)(=O)N[C@H]3CN[C@H](CO)C3)c(S(N)(=O)=O)c2-c2nn[nH]n2)cn1 [Example 411]
[1]
  Concentration of metallo-β-lactamase inhibitor which restores susceptibility of efflux − (MB9799) strain to imipenem: 1.563
[2]
  Escherichia coli MITC95: 0.7813 µM
[3]
  Serratia marcescens MITC95: 1.563 µM
[4]
  Klebsiella pneumoniae MITC95: 3.125 µM
[5]
  Efflux ratio: 1.00
VIM-1; [7]
  IC50: 0.177 nM
[6]
  Concentration of metallo-β-lactamase inhibitor which restores susceptibility of efflux + (MB9798) strain to imipenem: 1.563
NDM-1
  IC50: 0.117 nM
IMP-1
  IC50: 0.408 nM
